Measured values reported in patent publication US8952042B2, “FXR (NR1H4) binding and activity modulating compounds” (Phenex Pharmaceuticals AG, priority 2009, dated 2015).
pEC50: −log10 of the molar value.

Target: T1, human FXR alpha ligand binding domain (Homo sapiens, UniProt Q96RI1)
T1 construct: made in house; host or cells: E. coli BL21(DE3), vector pDEST15
T1 sequence (Q96RI1 187-472 isoform Q96RI1-2): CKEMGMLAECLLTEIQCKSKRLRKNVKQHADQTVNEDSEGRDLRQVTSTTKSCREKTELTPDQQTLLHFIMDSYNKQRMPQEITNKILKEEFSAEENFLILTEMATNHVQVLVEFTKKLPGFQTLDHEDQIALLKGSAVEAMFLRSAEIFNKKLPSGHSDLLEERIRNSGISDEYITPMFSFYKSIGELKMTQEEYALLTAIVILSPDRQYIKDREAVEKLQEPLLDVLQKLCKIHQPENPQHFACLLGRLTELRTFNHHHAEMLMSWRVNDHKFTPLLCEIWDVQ
Assay: FRET activity assay (ligand mediated cofactor peptide interaction, LANCE)
Type: biochemical
Details: potency range
Method: Determination of a ligand mediated cofactor peptide interaction to quantify ligand binding to the nuclear receptor FXR was performed as follows: Preparation of human FXR alpha ligand binding domain: The human FXRalpha LBD was expressed in E. coli strain BL21(DE3) as an N-terminally GST tagged fusion protein. The DNA encoding the FXR ligand binding domain was cloned into vector pDEST15 (Invitrogen). Expression was under control of an IPTG inducible T7 promoter. The amino acid boundaries of the ligand binding domain were amino acids 187-472 of Database entry NM_005123 (RefSeq). Expression and purification of the FXR-LBD: An overnight preculture of a transformed E. coli strain was diluted 1:20 in LB-Ampicillin medium and grown at 30° C. to an optical density of OD600=0.4-0.6. Gene expression was then induced by addition of 0.5 mM IPTG. Cells were incubated an additional 6 h at 30° C., 180 rpm. Cells were collected by centrifugation (7000×g, 7 min, room temperature). Per liter of original cell culture, cells were resuspended in 10 mL lysis buffer (50 mM Glucose, 50 mM Tris pH 7.9, 1 mM EDTA and 4 mg/mL lysozyme) and left on ice for 30 min. Cells were then subjected to sonication and cell debris removed via centrifugation (22000×g, 30 min, 4° C.). Per 10 mL of supernatant 0.5 mL prewashed Glutathione 4B sepharose slurry (Qiagen) was added and the suspension kept slowly rotating for 1 h at 4° C. Glutathione 4B sepharose beads were pelleted by centrifugation (2000×g, 15 sec, 4° C.) and washed twice in wash buffer (25 mM Tris, 50 mM KCl, 4 mM MgCl2 and 1M NaCl). The pellet was resuspended in 3 mL elution buffer per liter of original culture (elution buffer: 20 mM Tris, 60 mM KCl, 5 mM MgCl2 and 80 mM glutathione added immediately prior to use as powder). The suspension was left rotating for 15 min at 4° C., the beads pelleted and eluted again with half the volume of elution buffer than the first time. The eluates were pooled and dialysed overnight in 20 mM Hepes buffer (pH 7.5) containing 60 mM KCl, 5 mM MgCl2 as well as 1 mM dithiothreitol and 10% (v/v) glycerol. The protein was analysed by SDS-Page.
The method measures the ability of putative ligands to modulate the interaction between the purified bacterial expressed FXR ligand binding domain (LBD) and a synthetic biotinylated peptide based on residues 676-700 of SRC-1 (LCD2, 676-700). […] The ligand binding domain (LBD) of FXR was expressed as fusion protein with GST in BL-21 cells using the vector pDEST15. Cells were lysed by sonication, and the fusion proteins purified over glutathione sepharose (Pharmacia) according to the manufacturers instructions. For screening of compounds for their influence on the FXR-peptide interaction, the Perkin Elmer LANCE technology was applied. This method relies on the binding dependent energy transfer from a donor to an acceptor fluorophor attached to the binding partner of interest. For ease of handling and reduction of background from compound fluorescence LANCE technology makes use of generic fluorophore labels and time resolved detection Assays were done in a final volume of 25 μL in a 384 well plate, in a Tris-based buffer (20 mM Tris-HCl pH 7.5; 60 mM KCl, 5 mM MgCl2; 35 ng/μL BSA), containing 20-60 ng/well recombinantly expressed FXR-LBD fused to GST, 200-600 nM N-terminally biotinylated peptide, representing SRC1 aminoacids 676-700, 200 ng/well Streptavidin-xIAPC conjugate (Prozyme) and 6-10 ng/well Eu W1024—antiGST (Perkin Elmer). DMSO content of the samples was kept at 1%. After generation of the assay mix and diluting the potentially FXR modulating ligands, the assay was equilibrated for one hour in the dark at room temperature in FIA-plates black 384 well (Greiner). The LANCE signal was detected by a Perkin Elmer VICTOR2V™ Multilabel Counter. The results were visualized by plotting the ratio between the emitted light at 665 and 615 nm.

pEC50 | SMILES
7.00 to 8.00 | O=C(O)c1cccc(C2CC2c2ccc(OCc3c(-c4c(Cl)cccc4Cl)noc3C3CC3)cc2Cl)c1 (racemic) [Example 4, 3-(2-(2-chloro-4-((5-cyclopropyl-3-(2,6-dichlorophenyl)isoxazol-4-yl)methoxy)phenyl)-cyclopropyl)benzoic acid]
< 7.00 | O=C(O)c1ccc(C2CC2c2ccc(OCc3c(-c4c(Cl)cccc4Cl)noc3C3CC3)cc2Cl)cc1 (racemic) [Example 12, 4-(2-(2-chloro-4-((5-cyclopropyl-3-(2,6-dichlorophenyl)isoxazol-4-yl)methoxy)phenyl)cyclopropyl)benzoic acid]
